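Cells were grown in 96-well plates and exposed to each compound for 48 hours at five concentrations; endpoints were interpolated linearly between bracketing concentrations, or set to the highest concentration if not reached. At the GI50, growth is halved. TGI denotes the concentration required for complete inhibition of growth.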
Experiments:
Experiment in all cases: DTP human tumour cell line panel, 48 h
[1] = system: 786-0 renal
[2] = system: A498 renal
[3] = system: A549 NSCLC
[4] = system: ACHN renal
[5] = system: BT-549 breast
[6] = system: CCRF-CEM leukemia
[7] = system: COLO 205 colon
[8] = system: EKVX NSCLC
[9] = system: HCC-2998 colon
[10] = system: HCT-116 colon
[11] = system: HCT-15 colon
[12] = system: HL-60(TB) leukemia
[13] = system: HOP-62 NSCLC
[14] = system: HOP-92 NSCLC
[15] = system: HS 578T breast
[16] = system: HT29 colon
[17] = system: IGROV1 ovarian
[18] = system: K-562 leukemia
[19] = system: KM12 colon
[20] = system: M14 melanoma
[21] = system: MALME-3M melanoma
[22] = system: MCF7 breast
[23] = system: MDA-MB-231 breast
[24] = system: MDA-N
[25] = system: MOLT-4 leukemia
[26] = system: NCI-H226 lung
[27] = system: NCI-H23 lung
[28] = system: NCI-H460 lung
[29] = system: OVCAR-5 ovarian
[30] = system: OVCAR-8 ovarian
[31] = system: RPMI-8226 leukemia
[32] = system: SK-MEL-2 melanoma
[33] = system: SK-MEL-28 melanoma
[34] = system: SK-MEL-5 melanoma
[35] = system: SN12C renal
[36] = system: SNB-19 CNS
[37] = system: SNB-75 CNS
[38] = system: SR leukemia
[39] = system: SW-620 colon
[40] = system: TK-10 renal
[41] = system: U251 CNS
[42] = system: UACC-257 melanoma
[43] = system: UACC-62 melanoma
[44] = system: UO-31 renal
[45] = system: CAKI-1 renal
[46] = system: DU-145 prostate
[47] = system: LOX IMVI melanoma
[48] = system: MDA-MB-435
[49] = system: NCI-H522 lung
[50] = system: NCI/ADR-RES ovarian
[51] = system: OVCAR-3 ovarian
[52] = system: OVCAR-4 ovarian
[53] = system: PC-3 prostate
[54] = system: RXF 393 renal
[55] = system: SF-268 CNS
[56] = system: SF-295 CNS
[57] = system: SF-539 CNS
[58] = system: SK-OV-3 ovarian
[59] = system: T-47D breast

`O=S(=O)(/N=C1/SC(=Nc2ccccc2)N(c2ccccc2)/C1=N/S(=O)(=O)c1ccccc1)c1ccccc1` showed a TGI [1] of 41.1 µM, a TGI [2] of 37.6 µM and a TGI [3] of 69 µM. It also gave a TGI [4] of 68.7 µM, a TGI [5] of 79.2 µM and a TGI [6] of 55 µM. For the same compound, the TGI [7] was 64.1 µM, the TGI [8] was 76.8 µM and the TGI [9] was 48.7 µM. The TGI [10] was 38.4 µM, the TGI [11] was 34.5 µM and the TGI [12] was 45.1 µM. The TGI [13] was 80.4 µM, the TGI [14] was 62.9 µM and the TGI [15] was > 100 µM. The TGI [16] was 48.1 µM, the TGI [17] was 46.7 µM and the TGI [18] was 66.6 µM. The TGI [19] was 71 µM, the TGI [20] was 62.8 µM and the TGI [21] was 68.6 µM. For the same compound, the TGI [22] was 52.7 µM, the TGI [23] was 35.6 µM and the TGI [24] was 34.4 µM. The TGI [25] was 62.2 µM, the TGI [26] was 45.7 µM and the TGI [27] was 34.5 µM. For the same compound, the TGI [28] was 51.6 µM, the TGI [29] was 51.6 µM and the TGI [30] was 62.6 µM. For the same compound, the TGI [31] was 44.6 µM, the TGI [32] was 45 µM and the TGI [33] was 34 µM. It also gave a TGI [34] of 31.3 µM, a TGI [35] of 31.5 µM and a TGI [36] of 96.8 µM. For the same compound, the TGI [37] was 62.1 µM, the TGI [38] was 50.6 µM and the TGI [39] was 44.2 µM. It also gave a TGI [40] of 91.8 µM, a TGI [41] of 70.7 µM and a TGI [42] of 43.4 µM. For the same compound, the TGI [43] was 31.9 µM and the TGI [44] was 39.9 µM.
`O=C(Nc1ccc(-c2ccnc(Nc3ccc(N4CCOCC4)cc3)n2)cc1)C1CCCN1` (centres undefined) gave a GI50 [1] of 4.94 µM, a TGI [1] of 20.2 µM and a GI50 [2] of 6.4 µM. The TGI [2] was 17.9 µM, the GI50 [3] was 5.66 µM and the TGI [3] was 35.3 µM. The GI50 [4] was 4.27 µM, the TGI [4] was 25.2 µM and the GI50 [5] was 8.76 µM. It also gave a TGI [5] of 23 µM, a GI50 [45] of 3.29 µM and a TGI [45] of 17.7 µM. For the same compound, the GI50 [6] was 2.36 µM, the TGI [6] was 39.9 µM and the GI50 [7] was 5.25 µM. For the same compound, the TGI [7] was 20.5 µM, the GI50 [46] was 7.14 µM and the TGI [46] was 37.4 µM. The GI50 [8] was 12.5 µM, the TGI [8] was 33.7 µM and the GI50 [9] was 11.3 µM. The TGI [9] was 25 µM, the GI50 [10] was 1.43 µM and the TGI [10] was 18.5 µM. The GI50 [11] was 0.639 µM, the TGI [11] was 18.9 µM and the GI50 [12] was 4.5 µM. The TGI [12] was 25.5 µM, the GI50 [13] was 5.16 µM and the TGI [13] was 27.7 µM. It also gave a GI50 [14] of 4.1 µM, a TGI [14] of 24.4 µM and a GI50 [15] of 3 µM. The TGI [15] was 24.8 µM, the GI50 [16] was 3.89 µM and the TGI [16] was 23.3 µM. It also gave a GI50 [17] of 5.16 µM, a TGI [17] of 25.8 µM and a GI50 [18] of 2 µM. For the same compound, the TGI [18] was > 53.3 µM, the GI50 [19] was 7.49 µM and the TGI [19] was 27.3 µM. It also gave a GI50 [47] of 2.27 µM, a TGI [47] of 13.9 µM and a GI50 [20] of 7.23 µM. The TGI [20] was 22.8 µM, the GI50 [21] was 6.71 µM and the TGI [21] was 23.1 µM. The GI50 [22] was 4.51 µM, the TGI [22] was 21.4 µM and the GI50 [23] was 7.77 µM. For the same compound, the TGI [23] was 23.1 µM, the GI50 [48] was 6.39 µM and the TGI [48] was 21.5 µM. For the same compound, the GI50 [25] was 3.04 µM, the TGI [25] was 33.2 µM and the GI50 [26] was 6.69 µM. The TGI [26] was 52.5 µM, the GI50 [27] was 12.1 µM and the TGI [27] was 32.4 µM. The GI50 [28] was 1.6 µM, the TGI [28] was 16.4 µM and the GI50 [49] was 6.23 µM. For the same compound, the TGI [49] was 21.1 µM, the GI50 [50] was 9.49 µM and the TGI [50] was 44.5 µM. For the same compound, the GI50 [51] was 9.43 µM, the TGI [51] was 27.3 µM and the GI50 [52] was 12.2 µM. The TGI [52] was 43.1 µM, the GI50 [29] was 14.6 µM and the TGI [29] was 30.7 µM. The GI50 [30] was 5.09 µM, the TGI [30] was 28.3 µM and the GI50 [53] was 1.79 µM. For the same compound, the TGI [53] was 31.9 µM, the GI50 [31] was 4.61 µM and the TGI [31] was 24.7 µM. For the same compound, the GI50 [54] was 2.23 µM, the TGI [54] was 9.36 µM and the GI50 [55] was 4.9 µM. For the same compound, the TGI [55] was 44.8 µM, the GI50 [56] was 4.18 µM and the TGI [56] was 20.4 µM. For the same compound, the GI50 [57] was 2.33 µM, the TGI [57] was 14.2 µM and the GI50 [32] was 15.2 µM. For the same compound, the TGI [32] was 35.8 µM, the GI50 [33] was 8.95 µM and the TGI [33] was 22.3 µM. It also gave a GI50 [34] of 3.31 µM, a TGI [34] of 18.9 µM and a GI50 [58] of 11.8 µM. For the same compound, the TGI [58] was 32.8 µM, the GI50 [35] was 4.47 µM and the TGI [35] was 44 µM. The GI50 [36] was 18 µM, the TGI [36] was 64.7 µM and the GI50 [37] was 1.96 µM. The TGI [37] was 12.5 µM, the TGI [38] was > 25.6 µM and the GI50 [39] was 6.14 µM. For the same compound, the TGI [39] was 25.1 µM, the GI50 [59] was 14.7 µM and the TGI [59] was 38.7 µM. It also gave a GI50 [40] of 9.35 µM, a TGI [40] of 33.6 µM and a GI50 [41] of 3.05 µM. The TGI [41] was 21.6 µM, the GI50 [42] was 8.99 µM and the TGI [42] was 22.8 µM. It also gave a GI50 [43] of 6.63 µM, a TGI [43] of 20.8 µM and a GI50 [44] of 4.06 µM. It also gave a TGI [44] of 24.2 µM.

From PubChem BioAssay (NCI)
